Reference: ChEMBL document CHEMBL1143128, “Imidazo[1,2-a]pyridine derivatives as inhibitors of TNF-alpha expression in T cells” (Bioorg Med Chem, 2008)
In brackets after ≈: the same amount, converted by molar mass. Activity calls are given as the source filed them. The calls are words filed in the database; no cut-off is given here.

Tests used:
HL-60 = test: Cytotoxicity against human HL60 cells after 48 hrs; format: functional; details: HL-60, 48 h
U-937 [1] = test: Cytotoxicity against human U937 cells after 48 hrs; format: functional; details: U-937, 48 h
[2] = Cytotoxicity against human COLO320 cells after 48 hrs; format: functional; details: COLO 320, 48 h
RAW [3] = test: Cytotoxicity against mouse RAW […] cells after 48 hrs; format: functional
Jurkat [4] = test: Cytotoxicity against human Jurkat cells after 48 hrs; format: functional
Jurkat [5] = test: Inhibition of TPA/ionomycin-stimulated human TNFalpha promoter expression in human Jurkat T cells by luciferase reporter gene assay; format: functional, cell-based
HepG2 [6] = test: Cytotoxicity against human HepG2 cells after 48 hrs; format: functional; details: HepG2, 48 h
HeLa [7] = test: Cytotoxicity against human HeLa S3 cells after 48 hrs; format: functional
U-937 [8] = test: Inhibition of TPA-stimulated TNFalpha production in human U937 cells; format: functional, cell-based
RAW [9] = test: Inhibition of LPS/IFN-gamma-induced COX2 gene expression in mouse RAW 264.7 cells; format: functional, cell-based
HeLa [10] = test: Inhibition of IFN-alpha-stimulated GAS/ISRE gene promoter expression in human HeLa S3 cells by SEAP reporter gene assay; format: functional, cell-based
[11] = molecular target: Mitogen-activated protein kinase 3 (Homo sapiens) (UniProt P27361); test: Inhibition of TPA/ionomycin-induced ERK1 phosphorylation in human Jurkat cells upto 10 ug/ml by Western blotting; format: cell-based
Mitogen-activated protein kinase 3 (Homo sapiens), sequence (P27361 whole entry): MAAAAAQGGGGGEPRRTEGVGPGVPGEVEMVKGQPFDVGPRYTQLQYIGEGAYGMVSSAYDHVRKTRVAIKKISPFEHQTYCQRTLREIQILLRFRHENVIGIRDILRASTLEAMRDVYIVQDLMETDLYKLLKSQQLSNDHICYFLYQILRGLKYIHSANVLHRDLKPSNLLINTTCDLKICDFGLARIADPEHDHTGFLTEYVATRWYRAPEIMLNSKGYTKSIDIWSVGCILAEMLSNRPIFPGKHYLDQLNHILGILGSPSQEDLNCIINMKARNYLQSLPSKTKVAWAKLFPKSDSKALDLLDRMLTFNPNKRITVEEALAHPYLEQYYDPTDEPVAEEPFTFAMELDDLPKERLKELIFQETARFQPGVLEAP

Jurkat [12] = test: Inhibition of TPA-stimulated COX2 gene promoter expression in human Jurkat cells by luciferase reporter gene assay; format: functional, cell-based
[13] = molecular target: Mitogen-activated protein kinase 1 (Homo sapiens) (UniProt P28482); test: Inhibition of TPA/ionomycin-induced ERK2 phosphorylation in human Jurkat cells upto 10 ug/ml by Western blotting; format: cell-based
Mitogen-activated protein kinase 1 (Homo sapiens), sequence (P28482 whole entry): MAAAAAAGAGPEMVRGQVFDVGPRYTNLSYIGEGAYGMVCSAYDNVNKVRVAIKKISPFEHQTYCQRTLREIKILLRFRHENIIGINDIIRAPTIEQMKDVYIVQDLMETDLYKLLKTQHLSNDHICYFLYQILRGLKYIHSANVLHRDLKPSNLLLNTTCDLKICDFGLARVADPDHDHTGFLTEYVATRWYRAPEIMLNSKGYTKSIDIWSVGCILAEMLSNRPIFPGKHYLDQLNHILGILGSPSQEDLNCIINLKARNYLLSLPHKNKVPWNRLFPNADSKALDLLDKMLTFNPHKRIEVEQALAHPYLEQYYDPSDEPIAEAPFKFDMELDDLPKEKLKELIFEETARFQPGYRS

RAW [14] = test: Inhibition of LPS/IFN-gamma-induced iNOS gene expression in mouse RAW 264.7 cells; format: functional, cell-based
Jurkat [15] = test: Inhibition of TPA-stimulated NF-kappaB gene promoter expression in human Jurkat cells by SEAP reporter gene assay; format: functional, cell-based
HeLa [16] = test: Inhibition of TPA-stimulated AP1 gene promoter expression in human HeLa S3 cells by SEAP reporter gene assay; format: functional, cell-based
Jurkat [17] = test: Inhibition of TPA-stimulated NF-AT/AP1 gene promoter expression in human Jurkat cells by SEAP reporter gene assay; format: functional, cell-based
HepG2 [18] = test: Inhibition of IL6-stimulated IL6 gene promoter expression in human HepG2 cells by SEAP reporter gene assay; format: functional, cell-based
[19] = molecular target: MAP kinase p38 (Homo sapiens) (UniProt O15264+Q15759+Q16539+P53778); test: Inhibition of TPA/ionomycin-induced p38 kinase phosphorylation in human Jurkat cells upto 10 ug/ml by Western blotting; format: cell-based
Jurkat [20] = test: Inhibition of TPA/ionomycin-stimulated human TNFalpha promoter expression in human Jurkat T cells at 55 uM by luciferase reporter gene assay relative to control; format: functional; set-up: scale not given: the % may be the effect or the level left

IC50 (Jurkat [5]) [µM] | IC50 (U-937 [8]) | SMILES | CC50 (HL-60) [µg/mL] | CC90 (HL-60) [µg/mL] | CC50 (U-937 [1]) [µg/mL] | CC90 (U-937 [1]) [µg/mL] | CC50 [2] [µg/mL] | CC90 [2] [µg/mL] | CC50 (RAW [3]) [µg/mL] | CC90 (RAW [3]) [µg/mL] | CC50 (Jurkat [4]) [µg/mL] | CC90 (Jurkat [4]) [µg/mL] | CC50 (HepG2 [6]) [µg/mL] | CC50 (HeLa [7]) [µg/mL] | CC90 (HeLa [7]) [µg/mL] | other results
3.6 | 4.6 µM | CCCCCCCCCCCC(=O)[C@]1(O)C[C@H](C(=O)OC)C(C(=O)OCC)=C2N(Cc3ccccc3)CCN21 | 10 (≈ 18.4 µM) | 25 (≈ 46.1 µM) | 10 (≈ 18.4 µM) | 25 (≈ 46.1 µM) | 10 (≈ 18.4 µM) | 50 (≈ 92.1 µM) | 5 (≈ 9.21 µM) | 25 (≈ 46.1 µM) | 10 (≈ 18.4 µM) | 50 (≈ 92.1 µM) | 50 (≈ 92.1 µM) | 10 (≈ 18.4 µM) | 25 (≈ 46.1 µM) | Activity (RAW [9]): inactive; IC50 (HeLa [10]): 4.6 µM; Activity [11]: inactive; IC50 (Jurkat [12]): 4.6 µM; Activity [13]: inactive; Activity (RAW [14]): inactive; IC50 (Jurkat [15]): 4.6 µM; IC50 (HeLa [16]): 4.6 µM; IC50 (Jurkat [17]): 4.6 µM; IC50 (HepG2 [18]): 18.4 µM; Activity [19]: inactive
9.5 | – | CCCCCCCCCCCC(=O)[C@]1(O)C[C@H](C(=O)OCC)C(C(=O)OCC)=C2N(Cc3ccccc3)CCN21 | 10 (≈ 18 µM) | 25 (≈ 44.9 µM) | 10 (≈ 18 µM) | 25 (≈ 44.9 µM) | 10 (≈ 18 µM) | > 50 | 5 (≈ 8.98 µM) | 25 (≈ 44.9 µM) | 10 (≈ 18 µM) | 50 (≈ 89.8 µM) | 50 (≈ 89.8 µM) | 10 (≈ 18 µM) | 50 (≈ 89.8 µM) | Activity (Jurkat [20]): 25%

Second part, the compound before the results:

SMILES | IC50 (Jurkat [5]) [µM] | IC50 (U-937 [8]) | CC50 (HL-60) [µg/mL] | CC90 (HL-60) [µg/mL] | CC50 (U-937 [1]) [µg/mL] | CC90 (U-937 [1]) [µg/mL] | CC50 [2] [µg/mL] | CC90 [2] [µg/mL] | CC50 (RAW [3]) [µg/mL] | CC90 (RAW [3]) [µg/mL] | CC50 (Jurkat [4]) [µg/mL] | CC90 (Jurkat [4]) [µg/mL] | CC50 (HepG2 [6]) [µg/mL] | CC50 (HeLa [7]) [µg/mL] | CC90 (HeLa [7]) [µg/mL] | other results
CCCCCCCCCCCC(=O)[C@]1(O)C[C@H](C(=O)O)C(C(=O)OCC)=C2N(Cc3ccccc3)CCN21 | 9.5 | – | 10 (≈ 18.9 µM) | 50 (≈ 94.6 µM) | 10 (≈ 18.9 µM) | 25 (≈ 47.3 µM) | 10 (≈ 18.9 µM) | 50 (≈ 94.6 µM) | 10 (≈ 18.9 µM) | 50 (≈ 94.6 µM) | 10 (≈ 18.9 µM) | 50 (≈ 94.6 µM) | > 50 | 25 (≈ 47.3 µM) | – | –
CCOC(=O)/C=C1\NCCN1Cc1ccccc1 | – | 10 µg/mL | – | – | – | – | – | – | – | – | – | – | – | – | – | –
CCCCCCCCCCCC(=O)C(=O)/C=C/C(=O)O | – | – | – | – | – | – | – | – | – | – | – | – | – | – | – | Activity (Jurkat [5]): inactive
